For orientation: MIC50 means an inhibitory concentration at the 50% level, which refers to growth in some studies and to a panel of isolates in others. In general, MIC90 refers to the lowest concentration that inhibits either 90% of growth or 90% of the strains tested, depending on the study. High values mean weaker potency, low ones greater potency. By inhibition is commonly meant the change of the read-out against control, counted positive when it falls.

Values after ≈ are worked out from the molar mass of the structure shown.

In test [1] the test system is Streptococcus. Put plainly: Antimicrobial activity against viridans group Streptococcus by broth microdilution method. The format is functional. A general note: Dilution methods test growth across graded concentrations, often in twofold steps.
Test [2] concerns Enterococcus faecium. Put plainly: Antimicrobial activity against Enterococcus faecium VanB assessed as growth inhibition at 0.06 ug/ml by broth microdilution method. It counts as functional.
The subject of test [3] is Enterococcus faecium. The test is described as follows: Antimicrobial activity against Enterococcus faecium VanB assessed as growth inhibition at 1 ug/ml by broth microdilution method. The format is functional.
Test [4] deals with Enterococcus faecalis. Put plainly: Antimicrobial activity against Enterococcus faecalis VanA assessed as growth inhibition at 2 ug/ml by broth microdilution method. It counts as functional.
Test [5] is described as follows: Antimicrobial activity against Beta-hemolytic Streptococcus sp. 'group C' assessed as growth inhibition at 0.06 ug/ml by broth microdilution method. The format is functional.
The test system of test [6] is Enterococcus faecium. The test is described as follows: Antimicrobial activity against Enterococcus faecium VanB assessed as growth inhibition at 0.12 ug/ml by broth microdilution method. The format is functional.
For test [7], the system named is Enterococcus faecium. Put plainly: Antimicrobial activity against Enterococcus faecium VanB assessed as growth inhibition at 0.5 ug/ml by broth microdilution method. It counts as functional.
Another test has as its system Streptococcus sp. Put plainly: Antimicrobial activity against Beta-hemolytic Streptococcus sp. […]. It counts as functional, Group F.
In test [8] the test system is Streptococcus. Put plainly: Antimicrobial activity against Beta-hemolytic Streptococcus assessed as percent susceptible isolate by broth microdilution method. It counts as functional.
Test [9] concerns Enterococcus faecalis. Put plainly: Antimicrobial activity against Enterococcus faecalis VanB assessed as growth inhibition at 0.06 ug/ml by broth microdilution method. It counts as functional.
The test system of test [10] is Streptococcus sp. 'group A'. The test is described as follows: Antimicrobial activity against Beta-hemolytic Streptococcus sp. 'group A' assessed as growth inhibition at =<[…] ug/ml by broth microdilution method. The format is functional.
The test system of test [11] is Streptococcus. The test is described as follows: Antimicrobial activity against viridans group Streptococcus assessed as percent susceptible isolate by broth microdilution method. The format is functional.
Test [12] can be described thus: Antimicrobial activity against Beta-hemolytic Streptococcus sp. 'group G' assessed as growth inhibition at =<[…] ug/ml by broth microdilution method. The format is functional.
In test [13] the test system is Streptococcus sp. 'group B'. Put plainly: Antimicrobial activity against Beta-hemolytic Streptococcus sp. 'group B' assessed as growth inhibition at 0.12 ug/ml by broth microdilution method. The format is functional.
In test [14] the test system is Streptococcus sp. 'group B'. The test is described as follows: Antimicrobial activity against Beta-hemolytic Streptococcus sp. 'group B' assessed as growth inhibition at 0.25 ug/ml by broth microdilution method. It counts as functional.
Test [15] is described as follows: Antimicrobial activity against Beta-hemolytic Streptococcus sp. 'group C' assessed as growth inhibition at =<[…] ug/ml by broth microdilution method. The format is functional.

`CN[C@H](CC(C)C)C(=O)N[C@H]1C(=O)N[C@@H](CC(N)=O)C(=O)N[C@H]2C(=O)N[C@H]3C(=O)N[C@H](C(=O)N[C@H](C(=O)O)c4cc(O)cc(O)c4-c4cc3ccc4O)[C@H](O)c3ccc(c(Cl)c3)Oc3cc2cc(c3O[C@@H]2O[C@H](CO)[C@@H](O)[C@H](O)[C@H]2O[C@H]2C[C@](C)(N)[C@H](O)[C@H](C)O2)Oc2ccc(cc2Cl)[C@H]1O` [VANCOMYCIN] showed an MIC50 with Streptococcus [1] of 0.5 µg/mL (≈ 0.345 µM). The same compound displayed an MIC90 in the test on Streptococcus [1] of 1 µg/mL (≈ 0.69 µM). Further, the values for the inhibition at 0.06 µg/mL (in the test on Enterococcus faecium [2]; in [5]; in the test with Enterococcus faecalis [9]) were 56%, 100% and 33.3%, respectively. In the test on Enterococcus faecium [3], the inhibition at 1 µg/mL was 90.3%. Also, the inhibition at 2 µg/mL with Enterococcus faecalis [4] is 7.4%. Further, the inhibition at 0.12 µg/mL with Enterococcus faecium [6] was determined as 71.6%; in test [13] it was 99.6%. The inhibition at 0.5 µg/mL in the test with Enterococcus faecium [7] came out at 85.1%. Further, the “inhibition (INH)” value with Streptococcus sp. is recorded as 97.1%; in test [10], 98.8%; in test [12], 95.6%; in test [15] it was 99.4%. Further, the Activity came to 100% in the test with Streptococcus [8] and 99.9% in the test on Streptococcus [11]. The inhibition at 0.25 µg/mL in test [14] was 100%.
